Measured values taken from patent US20230123334A1, “AMINO LIPID COMPOUND, PREPARATION METHOD THEREFOR, AND APPLICATION THEREOF” (SHENZHEN SHENXIN BIOTECHNOLOGY CO., LTD., priority 2020, published 2023).

Each molecule was assayed on HEK293 cells (assay: Preliminary screening as DNA vectors, GFP transfection of HEK293 cells). Details: amino lipid/DOPE liposome with 75 ng plasmid DNA (psin-EGFP-IRES-Puro); number of GFP-expressing cells divided by total nuclei (Hoechst).
Format: cell-based
Experimental: Cell line: HEK293 cells (ATCC CRL-1573™)
Medium: DMEM supplemented with 10% fetal bovine serum (Invitrogen)
Mode of screening: cell transfection on 96-well plates
Detection (readout): percentage of the number of GFP fluorescent cells relative to the total number of cells (the total number of cells was measured using nucleus dye Hoechst—see FIG. 2). Lipofectamine2000 (Invitrogen) was used as positive control, according to the manufacturer's instructions.
Method: an 8-channel pipette was used for sample addition. The contents shown were for a single well of a 96-well flat plate.
1. The compound (0.01 mmol) prepared in Example 1 was dissolved in 1 mL of anhydrous ethanol. After ultrasonically dissolved, 10 μL of the resultant amino lipid solution in ethanol was taken and mixed with 5 μL of DOPE solution in ethanol (0.01 m), and then to the obtained mixture was added 35 μL of 0.2M sodium acetate buffer (pH 5.6), and 50 μL of liposome solution was prepared by vortex at a constant rotating speed for 30 s. 4 μL was taken from the 50 μL liposome solution and added to 46 μL of 0.02M sodium acetate buffer (pH 5.6), and the final liposome solution was formed by vortex at a constant rotating speed for 30 s. 5 μL was taken from the final liposome solution and mixed with 75 ng plasmid DNA (psin-EGFP-IRES-Puro, Clontech) dissolved in 5 μL of 0.02 M sodium acetate buffer, and was allowed to stay at room temperature for 30 min to form a lipid/DNA transfection complex.
2. 10 μL of the lipid/DNA transfection complex was incubated at room temperature for 30 min, followed by addition of 90 μL of fresh resuspended cells (3-5×10^4 cells) and mixing with a pipette. 100 μL of cells+lipid/DNA complex was transferred to separate wells of a 96-well culture plate immediately, and placed in an incubator containing 5% CO2 at 37° C.
3. Hoechst33258 (Invitrogen) was added at a final concentration of 0.2 μg/mL to the cells 20 to 24 hours after initial cell transfection, and cultured in darkness at 37° C. for 15 min. Afterwards, the cells were washed once with a PBS solution, and then added with medium for culture for 20 to 24 h.
4. The cells were placed in a high-throughput confocal microscope (Molecular Devices ImageXpress), and four visual fields of the image of the cells were captured for each well, and images at three laser wavelengths were captured for each sample: bright field images of cells (FIG. 2(a) and FIG. 2(b)), Hoechst-staining images showing total nuclei (FIG. 2(c) and FIG. 2(d)) and GFP images showing success in transfection with the plasmid DNA and the expression of GFP (FIG. 2(e) and FIG. 2(f)). MetaXpress software was used to separately count the cells in the Hoechst-staining images and GFP images, and then the number of cells expressing GFP was divided by the total number of nuclei to give the absolute cell transfection efficiency. The absolute transfection efficiency was calculated as follows: […]
For CCCCCCCCCCCCCCCCCCSc1nc(NCCCCCCCCCCCC)nc(NCCN2CCCC2)n1 [S18N12 D3], the “Absolute DNA transfection efficiency in HEK293 cells” value (shortened to “Absolute DNA transfection efficiency”) was 1.8%.
With CCCCCCCCCCCCN(CCCCCCCCCCCC)c1nc(NCC2CCN(C)CC2)nc(SCCCCCCCCCCC)n1 [S11^2N12 D10] the “Absolute DNA transfection efficiency” value was 0.0%.
In the case of CCCCCCCCCCCNc1nc(NCCN2CCOCC2)nc(SCCCCCC)n1 [S6N11 D2], the “Absolute DNA transfection efficiency” value is reported as 0.2%.
In the case of CCCCCCCCCCCCNc1nc(NCCN(CC)CC)nc(SCCCCCCCCC)n1 [S9N12 D7], the “Absolute DNA transfection efficiency” value is reported as 12.4%.
CCCCCCCCCCCCCCCCCCSc1nc(NCCCCCCCCCCCCC)nc(NCCN2CCN(C)CC2)n1 [S18N13 D5] was tested, and the “Absolute DNA transfection efficiency” value was 0.0%.
In the case of CCCCCCCCCCCCSc1nc(NCCCCCCC)nc(NCC2CCN(C)CC2)n1 [S12N7 D10], the “Absolute DNA transfection efficiency” value is reported as 5.8%.
With CCCCCCCCCCCCCCCCCCNc1nc(NCCN2CCCCC2)nc(SCCCCCCCCCCCCCCCC)n1 [S16N18 D4] the “Absolute DNA transfection efficiency” value was 0.2%.
For CCCCCCCCCCCCCCCNc1nc(NCCN2CCOCC2)nc(SCCCCCCCCCCCCCCC)n1 [S15N15 D2], the “Absolute DNA transfection efficiency” value was 0.0%.
For CCCCCCCCCCCCCCCSc1nc(NCCCN2CCOCC2)nc(SCCCCCC)n1 [S6S15 D8], the “Absolute DNA transfection efficiency” value was 11.5%.
In the case of CCCCCCCCCCCCCCCCCCNc1nc(NCCCN2CCOCC2)nc(SCCCCCCCCCCCCCCC)n1 [S15N18 D8], the “Absolute DNA transfection efficiency” value is reported as 0.3%.
CCCCCCCCCCCCCCSc1nc(NCCCCCCCCCCCC)nc(NCCCN(C)C)n1 [S14N12 D6] was tested, and the “Absolute DNA transfection efficiency” value was 6.3%.
For CCCCCCSc1nc(NCCN2CCCCC2)nc(SCCCCCC)n1 [S6S6 D4], the “Absolute DNA transfection efficiency” value was 1.4%.
With CCCCCCCCCCCCCCCCCCNc1nc(NCCCN2CCN(C)CC2)nc(SCCCCCCCC)n1 [S8N18 D9] the “Absolute DNA transfection efficiency” value was 5.3%.
In the case of CCCCCCCCCCCNc1nc(NCCN2CCN(C)CC2)nc(SCCCCCCCCC)n1 [S9N11 D5], the “Absolute DNA transfection efficiency” value is reported as 45.0%.
In the case of CCCCCCCCCCCCCCSc1nc(NCCCCCC)nc(NCCN2CCCC2)n1 [S14N6 D3], the “Absolute DNA transfection efficiency” value is reported as 23.6%.
For CCCCCCCCCCCCNc1nc(NCCN2CCN(C)CC2)nc(SCCCCCCC)n1 [S7N12 D5], the “Absolute DNA transfection efficiency” value was 35.1%.
CCCCCCCCCCCCCCCCCCNc1nc(NCCN2CCOCC2)nc(SCCCCCC)n1 [S6N18 D2] was tested, and the “Absolute DNA transfection efficiency” value was 2.5%.
CCCCCCCCCCCSc1nc(NCCCCCCCCC)nc(NCCN2CCCCC2)n1 [S11N9 D4] was tested, and the “Absolute DNA transfection efficiency” value was 1.1%.
In the case of CCCCCCCCCCCCCNc1nc(NCCN(CC)CC)nc(SCCCCCCCCCCC)n1 [S11N13 D7], the “Absolute DNA transfection efficiency” value is reported as 2.8%.
In the case of CCCCCCCCSc1nc(NCCN2CCOCC2)nc(SCCCCCC)n1 [S6S8 D2], the “Absolute DNA transfection efficiency” value is reported as 2.5%.
For CCCCCCCCCCCCCCCNc1nc(NCCN2CCCC2)nc(SCCCCCC)n1 [S6N15 D3], the “Absolute DNA transfection efficiency” value was 15.9%.
For CCCCCCCNc1nc(NCC2CCN(C)CC2)nc(SCCCCCCC)n1 [S7N7 D10], the “Absolute DNA transfection efficiency” value was 8.6%.
For CCCCCCSc1nc(NCCCN2CCOCC2)nc(SCCCCCC)n1 [S6S6 D8], the “Absolute DNA transfection efficiency” value was 0.8%.
With CCCCCCCCCCCCCCSc1nc(NCCCCCCCCC)nc(NCCN2CCCCC2)n1 [S14N9 D4] the “Absolute DNA transfection efficiency” value was 2.0%.
For CCCCCCCNc1nc(NCCCN(C)C)nc(SCCCCCCC)n1 [S7N7 D6], the “Absolute DNA transfection efficiency” value was 33.5%.
With CCCCCCCCCCCCCCCSc1nc(NCC2CCN(C)CC2)nc(SCCCCCCC)n1 [S7S15 D10] the “Absolute DNA transfection efficiency” value was 33.3%.
With CCCCCCCCCCCCCCCCCCNc1nc(NCCCN2CCOCC2)nc(SCCCCCCC)n1 [S7N18 D8] the “Absolute DNA transfection efficiency” value was 5.9%.
CCCCCCCCNc1nc(NCCN2CCN(C)CC2)nc(SCCCCCC)n1 [S6N8 D5] was tested, and the “Absolute DNA transfection efficiency” value was 3.4%.
For CCCCCCCCCCCCCCCCNc1nc(NCCCN2CCOCC2)nc(SCCCCCC)n1 [S6N16 D8], the “Absolute DNA transfection efficiency” value was 4.2%.
In the case of CCCCCCCCCCCCCCCCSc1nc(NCCCN2CCN(C)CC2)nc(N(CCCCCCCCCCCC)CCCCCCCCCCCC)n1 [S16^2N12 D9], the “Absolute DNA transfection efficiency” value is reported as 0.6%.
With CCCCCCCCSc1nc(NCCCN2CCN(C)CC2)nc(SCCCCCC)n1 [S6S8 D9] the “Absolute DNA transfection efficiency” value was 10.0%.
With CCCCCCCCCCCCCCCCCCSc1nc(NCCN2CCCC2)nc(SCCCCCC)n1 [S6S18 D3] the “Absolute DNA transfection efficiency” value was 13.8%.
With CCCCCCCCCCCCCCCCCCSc1nc(NCCCCCCCCCCCCCCC)nc(NCCN(C)C)n1 [S18N15 D1] the “Absolute DNA transfection efficiency” value was 0.2%.
CCCCCCCCCCCCCNc1nc(NCCCN2CCN(C)CC2)nc(SCCCCCCCCC)n1 [S9N13 D9] was tested, and the “Absolute DNA transfection efficiency” value was 19.9%.
CCCCCCCCCCCCCCCNc1nc(NCCN2CCOCC2)nc(SCCCCCCCCCCC)n1 [S11N15 D2] was tested, and the “Absolute DNA transfection efficiency” value was 1.3%.
CCCCCCCCCCCCNc1nc(NCCCN2CCN(C)CC2)nc(SCCCCCCCCCCCC)n1 [S12N12 D9] was tested, and the “Absolute DNA transfection efficiency” value was 5.1%.
For CCCCCCCCSc1nc(NCCCCCCC)nc(NCCN2CCN(C)CC2)n1 [S8N7 D5], the “Absolute DNA transfection efficiency” value was 3.6%.
CCCCCCCCCCCCCCSc1nc(NCCCCCCCCCCCCC)nc(NCCN(C)C)n1 [S14N13 D1] was tested, and the “Absolute DNA transfection efficiency” value was 1.1%.
For CCCCCCCCCCCCCNc1nc(NCCCN2CCOCC2)nc(SCCCCCCCCCCCC)n1 [S12N13 D8], the “Absolute DNA transfection efficiency” value was 0.0%.
For CCCCCCCCCCCCCCSc1nc(NCCN(C)C)nc(SCCCCCCC)n1 [S7S14 D1], the “Absolute DNA transfection efficiency” value was 7.7%.
CCCCCCCCCCCCCCCCCCSc1nc(NCCCCCCCCCCCCC)nc(NCCN(CC)CC)n1 [S18N13 D7] was tested, and the “Absolute DNA transfection efficiency” value was 0.0%.
CCCCCCCCCCCCCCCCNc1nc(NCCN2CCN(C)CC2)nc(SCCCCCCCCC)n1 [S9N16 D5] was tested, and the “Absolute DNA transfection efficiency” value was 21.7%.
In the case of CCCCCCCCCCCCCCSc1nc(NCCCCCC)nc(NCC2CCN(C)CC2)n1 [S14N6 D10], the “Absolute DNA transfection efficiency” value is reported as 39.0%.
With CCCCCCCCCCCNc1nc(NCC2CCN(C)CC2)nc(SCCCCCCCCC)n1 [S9N11 D10] the “Absolute DNA transfection efficiency” value was 42.5%.
CCCCCCCCCCCCNc1nc(NCCN(C)C)nc(SCCCCCCCCCCC)n1 [S11N12 D1] was tested, and the “Absolute DNA transfection efficiency” value was 16.2%.
CCCCCCCCCCCNc1nc(NCCCN(C)C)nc(SCCCCCC)n1 [S6N11 D6] was tested, and the “Absolute DNA transfection efficiency” value was 1.9%.
In the case of CCCCCCCSc1nc(NCCCCCC)nc(NCCN2CCCCC2)n1 [S7N6 D4], the “Absolute DNA transfection efficiency” value is reported as 8.7%.
In the case of CCCCCCCCCCCCCCCNc1nc(NCCCN2CCN(C)CC2)nc(SCCCCCC)n1 [S6N15 D9], the “Absolute DNA transfection efficiency” value is reported as 28.4%.
For CCCCCCCCCCCCNc1nc(NCCN2CCCCC2)nc(SCCCCCCCCCC)n1 [S10N12 D4], the “Absolute DNA transfection efficiency” value was 4.7%.
For CCCCCCCCCCCCCCSc1nc(NCCCN2CCN(C)CC2)nc(N(CCCCCCCCCCCC)CCCCCCCCCCCC)n1 [S14^2N12 D9], the “Absolute DNA transfection efficiency” value was 0.0%.
CCCCCCCCCCCCCCCCNc1nc(NCCN2CCN(C)CC2)nc(SCCCCCCCCCCCCCCC)n1 [S15N16 D5] was tested, and the “Absolute DNA transfection efficiency” value was 0.2%.
In the case of CCCCCCCCCCCCCCCCNc1nc(NCCN2CCCC2)nc(SCCCCCC)n1 [S6N16 D3], the “Absolute DNA transfection efficiency” value is reported as 19.8%.
In the case of CCCCCCCCCCCCN(CCCCCCCCCCCC)c1nc(NCCN(CC)CC)nc(SCCCCCCCCC)n1 [S9^2N12 D7], the “Absolute DNA transfection efficiency” value is reported as 0.2%.
With CCCCCCCCCCCCSc1nc(NCCCCCCCC)nc(NCCN2CCCCC2)n1 [S12N8 D4] the “Absolute DNA transfection efficiency” value was 0.0%.
For CCCCCCCCCCCCCCCNc1nc(NCCN2CCN(C)CC2)nc(SCCCCCCCCCCCCCCC)n1 [S15N15 D5], the “Absolute DNA transfection efficiency” value was 0.4%.
CCCCCCCCCCCCCCCCNc1nc(NCCN2CCCC2)nc(SCCCCCCCCC)n1 [S9N16 D3] was tested, and the “Absolute DNA transfection efficiency” value was 31.3%.
For CCCCCCCCCCCCCCCCCCNc1nc(NCC2CCN(C)CC2)nc(SCCCCCCCCCCCC)n1 [S12N18 D10], the “Absolute DNA transfection efficiency” value was 3.7%.
For CCCCCCCCCCCCSc1nc(NCCCCCCC)nc(NCCN2CCCC2)n1 [S12N7 D3], the “Absolute DNA transfection efficiency” value was 3.2%.
CCCCCCCCSc1nc(NCCCCCCC)nc(NCCN(C)C)n1 [S8N7 D1] was tested, and the “Absolute DNA transfection efficiency” value was 3.0%.
